Measured values taken from patent publication US7432045B2 (priority 2003, dated 2008).
Square brackets hold non-standard residues; d marks the D form. Peptide text beside a SMILES is read from it. * marks the point of attachment. Biotin = O=C1N[C@H]2[C@H](CS[C@H]2CCCCC(=O)*)N1; Ahx = NCCCCCC(=O)O

Legend:
HSV-1 KOS mutant hrR3 = assay: LacZ+ virus (hrR3) entry assay with pre-adsorbed virus (entry block); type: cell-based; conditions: FIG. 7B; read-out: inhibition of entry of pre-adsorbed virus IC50
Method: LacZ^+ virus (hrR3) entry assay: Confluent Vero cell cultures in 96-well microtiter plates were switched to Hepes-buffered serum-free DMEM, cooled on ice to 4° C. for 30 min, and infected with hrR3 for 1 hour at 4° C. in 40 μL of medium. Unattached virus was removed by rinsing with ice-cold medium. Treatments with antiviral peptide SEQ ID NO:1, referred to as EB, or a control peptide which comprised the RRKK tetra-peptide (SEQ ID NO:16) attached to a scrambled version of the membrane transiting peptide RRKKLAALPLVLAAPLAVLA (SEQ ID NO:17) (referred to as EBX), or mock-treatments with peptide-free medium were carried out in serum-free DMEM as indicated. Virus entry was initiated by transferring cultures to 37° C. To inactivate any remaining extracellular virus, cultures were rinsed with PBS and exposed to low pH citrate buffer (40 mM citric acid, 10 mM KCl, 135 mM NaCl, pH 3.0, according to Highlander et al., J. Virol. 61:3356 (1987), for 1 min at 23° C. The citrate was rinsed off with PBS and cultures were maintained in serum-supplemented DMEM until they were fixed with 0.5% gluteraldehyde in 5×PBS for 30 min at 23° C., stained for β-galactosidase activity for 1 hour or overnight at 23° C. with X-gal (Fisher Biotech; BP1615-1) in 1×PBS containing […], 1.3 mM K4Fe(CN)6, and 1.3 mM K3Fe(CN)6, and scored for the presence of blue […] cells.
In these studies, the hrR3 virus was pre-adsorbed to cells for 1 hour at 4° C. before ice cold 25 μM EB or EBX were added in serum-free DMEM. After an additional 1 hour at 4° C., cultures were shifted to 37° C. to initiate virus entry. At 15 min intervals following the temperature shift, any virus remaining outside the cells was inactivated by washing the cultures with low pH citrate buffer. Cultures were then rinsed and returned to peptide-free serum-supplemented DMEM until they were fixed and stained for β-galactosidase 8 hours after the temperature shift.
Two assays were used to assess the ability of the TAT peptides to inhibit infection of Vero cells with the hrR3 virus. In both assays, the virus was preadsorbed to cells at 4° C. and entry was initiated in the presence of peptide by shifting the cultures to a permissive temperature (30-37° C.). One hour later, the peptide was rinsed off. The entry blocking activity was measured in half of the cultures, in which any extracellular virus remaining after the peptide treatment was inactivated with low pH citrate buffer. The rest of the cultures were exposed to PBS instead of citrate buffer and used to measure virus inactivation. Virus inactivation depended on persistent effects of the peptide lasting for a period of eight hours. At the end of that period, all cultures were fixed and infected cells were detected by staining with X-gal.
Virus (m.o.i.=0.025) was preadsorbed to Vero cells for 1 h at 4° C. before cultures were exposed to TAT-C (FIG. 15A), bTAT-9X (FIG. 15B), or n50,51TAT-C (FIGS. 15C, 15D) for 1 h at 33 (FIGS. 15A, 15B), 31 (FIG. 15C), or 37° C. (FIG. 15D). […] Inhibition of entry was measured in the citrate-treated cultures, in which any remaining external virus was inactivated immediately following exposure to peptide (●). Persistent virus inactivation lasting, at least in part, for the 8 h period following exposure to peptide, was measured in the PBS-treated cultures (◯). The IC50s measured in these experiments are included in Table 5.

cornea = assay: In vivo peptide toxicity, cornea; set-up: species or system BALB/C mice
Method: (i) Cornea: Four-6-week-old female BALB/C mice (Harlan Sprague Dawley, Indianapolis, Ind.) were anesthetized by halothane inhalation (3-5%). A 2.0 μL drop of serum-free 5×DMEM solution containing 6.1 mM EB, 6.1 mM EBX, 7.5 mM TAT-C, 7.5 mM n50,51 TAT-C, 7.5 mM TAT-Cd, or 11.2 mM bHOMd or serum-free DMEM only (control) was then placed on the cornea and the mice were returned to their cages. Each group consisted of 5 mice, except for 11.2 mM bHOMd, and 7.5 mM TAT-Cd, which consisted of 4 mice. Only the right eye in each mouse received the peptide. Treatments were given 4 times per day at least 2 hrs apart for 7 days. On days 1, 5, and 7, the mice were examined microscopically for evidence of blepharitis, punctate keratopathy, dendrite ulceration and geographic ulceration. Damage to the corneal epithelium was assessed by staining with 1.0% […] and examination under a microscope with blue light. Blepharitis was scored: 1+ for noticeable puffy eyelids, 2+ for puffy eyelids with moderate crusting, 3+ for eye 50% swollen shut with severe crusting, and 4+ for eye totally swollen and crusted shut (Brandt et al., 1992). Punctate keratopathy, dendrite ulceration, and geographic ulceration were scored: 1+ for <25% of the cornea involved, 2+ for 25-50% involved, 3+ for 50-75% involved, and 4+ for >75% involved. The mean disease score for each group of mice on each day was calculated by the sum of disease scores in each group on each day divided by the numbers of mice in that group. On day 7, following the last treatment, the mice were sacrificed and the eyes were removed, fixed in 10% formalin, embedded in paraffin, sectioned (5μ each), and stained with hematoxylin and eosin as we have described previously (Brandt et al., 1996). Sections were then examined for evidence of damage to the cornea, sclera, lens, and retina.

[1] = system: Vero, HeLa, CV-1PD, TM-1, DP-9, CEMx174, NIKS, W12E cells; assay: MTS assay, eight cell lines; conditions: eight cell lines
in vitro = conditions: African green monkey
[2] = system: influenza A virus (Sydney 05/97,H3N2)
HSV-1 KOS [3] = conditions: data not shown
HSV-1 KOS [4] = assay: Plaque reduction assay; type: cell-based
Method: Cell culture and virus: The procedures for growing Vero cells and preparing high titer stocks of HSV-1 KOS as described in Grau et al., Invest. Ophthal. and Vis. Sci. 30: 2474 (1989) were utilized. Vero cells were maintained in carbonate-buffered DMEM supplemented with 5% calf serum and 5% fetal bovine serum (regular medium). For some studies, cells were switched to serum-free DMEM buffered with 25 mM HEPES (pH 7.4) and allowed to adapt to that medium for 30 min prior to experimental treatments. Vero cells were seeded into wells (0.28 cm^2) of microtiter plates either at 3.5×10^4 cells/well for use 1 day later (8×10^4 cells/well) or at 1×10^4 cells/well for use 3 days later (2×10^5 cells/well).
Plaque reduction assay: Confluent Vero cell cultures in microtiter plates were infected for 1 hour at 37° C. in 40 μL of medium. Except where indicated, peptide treatments in 40 μL of medium lasted from 1 hour before through 1 hour after infection. At the end of the adsorption period, the cultures were re-fed with 100 μL of regular medium. Plaque formation was scored 2 days later and the number of plaques scored per well was normalized to the number counted in the absence of peptide. Using an ocular micrometer, plaque size (π/2×L×S) was determined by measuring the largest plaque diameter (L) and the diameter at a 90° angle to that (S). The size of each of the first 40 scored plaques was measured except when a plaque included less than 10 rounded cells or touched the side of the well.

Compound: CC(C)C[C@H](NC(=O)[C@H](CCCCN)NC(=O)[C@H](CCCCN)NC(=O)[C@H](CCCNC(=N)N)NC(=O)[C@@H](N)CCCNC(=N)N)C(=O)N[C@@H](C)C(=O)N[C@@H](C)C(=O)N[C@@H](CC(C)C)C(=O)N1CCC[C@H]1C(=O)N[C@@H](CC(C)C)C(=O)N[C@H](C(=O)N[C@@H](CC(C)C)C(=O)N[C@@H](C)C(=O)N[C@@H](C)C(=O)N1CCC[C@H]1C(=O)N[C@@H](CC(C)C)C(=O)N[C@@H](C)C(=O)N[C@H](C(=O)N[C@@H](CC(C)C)C(=O)N[C@@H](C)C(=O)O)C(C)C)C(C)C [EBX, RRKKLAALPLVLAAPLAVLA, reference compound] (H-RRKKLAALPLVLAAPLAVLA-OH)
- IC50 (HSV-1 KOS mutant hrR3): ~100 µM
- corneal pathology (cornea; mouse, in vivo): no evidence of corneal pathology
- cytotoxicity to cells (MTS), overall [1]: generally not cytotoxic
- cytotoxic effects (Vero cells): No cytotoxic effects

Compound: CC[C@H](C)[C@H](NC(=O)[C@H](CCCCN)NC(=O)[C@@H](NC(=O)[C@H](CCC(N)=O)NC(=O)[C@H](CCCNC(=N)N)NC(=O)CCCCCNC(=O)CCCC[C@@H]1SC[C@@H]2NC(=O)N[C@@H]21)[C@@H](C)CC)C(=O)N[C@@H](Cc1c[nH]c2ccccc12)C(=O)N[C@@H](Cc1ccccc1)C(=O)N1CCC[C@H]1C(=O)N[C@@H](CC(N)=O)C(=O)N[C@@H](CCCNC(=N)N)C(=O)N[C@@H](CCCNC(=N)N)C(=O)N[C@@H](CCSC)C(=O)N[C@@H](CCCCN)C(=O)N[C@@H](Cc1c[nH]c2ccccc12)C(=O)N[C@@H](CCCCN)C(=O)N[C@@H](CCCCN)C(=O)N1CCC[C@H]1C(=O)NCC(=O)N[C@@H](Cc1ccc(O)cc1)C(=O)N[C@@H](C)C(=O)NCC(=O)N[C@@H](C)C(=O)N[C@H](C(=O)N[C@H](C(=O)N[C@@H](CC(N)=O)C(=O)N[C@@H](CC(=O)O)C(=O)N[C@@H](CC(C)C)C(=O)O)C(C)C)C(C)C [bHOM-9, b - RQIKIWFPNRRMKWKK-9] ({Biotin-Ahx}-RQIKIWFPNRRMKWKKPGYAGAVVNDL-OH)
- IC50 (in vitro): 50 µM
- antiviral effect against influenza A virus versus cytotoxic effects [2]: antiviral and cytotoxic effects were inseparable

Compound: CC[C@@H](C)[C@@H](NC(=O)[C@@H](CCCCN)NC(=O)[C@H](NC(=O)[C@@H](CCC(N)=O)NC(=O)[C@@H](CCCNC(=N)N)NC(=O)CCCCCNC(=O)CCCC[C@@H]1SC[C@@H]2NC(=O)N[C@@H]21)[C@H](C)CC)C(=O)N[C@H](Cc1c[nH]c2ccccc12)C(=O)N[C@H](Cc1ccccc1)C(=O)N1CCC[C@@H]1C(=O)N[C@H](CC(N)=O)C(=O)N[C@H](CCCNC(=N)N)C(=O)N[C@H](CCCNC(=N)N)C(=O)N[C@H](CCSC)C(=O)N[C@H](CCCCN)C(=O)N[C@H](Cc1c[nH]c2ccccc12)C(=O)N[C@H](CCCCN)C(=O)N[C@H](CCCCN)C(N)=O [bHOMd, b - RQIKIWFPNRRMKWKK-amide] ({Biotin-Ahx}-[dR][dQ][dI][dK][dI][dW][dF][dP][dN][dR][dR][dM][dK][dW][dK][dK]-NH2)
- punctate keratopathy (cornea; calcein staining): very mild punctate keratopathy
- blepharitis (cornea; four times a day for seven days): mild blepharitis
- cytotoxic effects (trypan blue staining) (MDCK cells): No cytotoxic effects
- antiviral effect against influenza A virus versus cytotoxic effects [2]: blocks influenza A virus in the absence of cytotoxic effects

Compound: CC(C)C[C@H](NC(=O)[C@H](C)NC(=O)[C@H](CCCCN)NC(=O)[C@H](CC(C)C)NC(=O)[C@H](C)NC(=O)[C@H](CC(C)C)NC(=O)[C@H](CCCCN)NC(=O)[C@H](CC(C)C)NC(=O)[C@H](C)NC(=O)[C@H](CC(C)C)NC(=O)[C@H](CCCCN)NC(=O)CCCCCNC(=O)CCCC[C@@H]1SC[C@@H]2NC(=O)N[C@@H]21)C(=O)N[C@@H](CCCCN)C(=O)N[C@@H](C)C(=O)N[C@@H](C)C(=O)N[C@@H](CC(C)C)C(=O)N[C@@H](CCCCN)C(=O)N[C@@H](CC(C)C)C(=O)N[C@@H](C)C(N)=O [bKLA, b - KLALKLALKALKAALKLA-amide]
- cytotoxic effects (trypan blue staining) (MDCK cells): No cytotoxic effects
- IC50 (in vitro): 15 µM

Compound: NH2 - RRKKAAVALLAVLLALLAPP-COOH (H-RRKKAAVALLAVLLALLAPP-OH) [EBPP]
- activity compared to EB in yield reduction assay (HSV-1 KOS [3]): twice as active
- antiviral activity compared to EB (HSV-1 KOS [4]): twice as active
